Assay results: patent US20240391928A1, “COMPOSITIONS FOR THE TREATMENT OF FOOD AND CHEMICAL ADDICTION AND METHODS OF MAKING AND USING SAME” (Duke University, priority 2021, published 2024)

Legend:
Assay type in all cases: cell-based
hGHSR1a^WT = hGHSR1a^WT (Homo sapiens, UniProt Q92847); test: Gαq-dependent intracellular Ca2+ mobilization (iCa2+, miAeq); design: HEK293/T (transient); HEK293S Gαq knockout (transient, NanoBiT Gαq); details: for Calcium signaling ECmax (%) / EC50: secondary assay of HTS hits; for Calcium signaling ECmax (%): normalized to L585; for EC50: read-out: Calcium signaling EC50; for inhibition of iCa2+ evoked by N8279, ghrelin or L585: 30 minute antagonist pretreatment
Protocol: Gαq-Dependent Intracellular Ca^2+ Mobilization. […] Cells were split into and seeded into 10 cm dishes without antibiotic selection and grown to confluency overnight. The next morning, cells were serum starved in 10 mL of clear opti-MEM (supplemented with L-glutamine and HEPES; Gibco, Waltham, MA) for 3-4 hours in a 37° C. incubator with 5% CO2. Then, 25 μL of coelenterazine H (NanoLight Technology, Pinetop, AZ) was added to each 10 mL dish and incubated for another 1-2 hours. For antagonist assays, test compounds were either added directly to the media in 10 cm dishes, or cells were collected by gentle washing/trituration and plated onto white, clear-bottomed 96-well plates for 30 minutes—1 hour. Once the coelenterazine H (or antagonist) incubation was complete, cells were harvested from the 10 cm dish by gentle washing/trituration and collected in a 15 mL conical tube. Cell suspensions were then immediately subjected to assay by injecting cells onto a white, clear-bottomed 96-well plate containing 2× test compounds. Luminescence was read without delay and for 10 seconds per well. To control for cell number variability, cells were lysed in 2× lysis buffer (100 mM CaCl2+0.2% Triton-X) immediately following the assay. The max ligand-induced response (Ca^2+ mobilization: net-miAeq) over 10 seconds was normalized by dividing the ligand-induced luminescence counts (L-miAeq) by the ligand-induced luminescence counts (L-MiAeq) plus the luminescence measured upon cell lysis (Lysis-miAeq). Relative, lysis-normalized data were then normalized to the appropriate control/reference condition.
(§1) For experiments with WT and Gt KO HEK293/S cells, […] of hGHSR1a^WT, 10 μg of miAEQ, and 2.5 μg of pcDNA3.1 was transiently transfected into 10 cm dishes and incubated overnight. […] Twenty-four hours later, experiments proceeded in accordance with the procedures described above. To control for any possible kinetic differences in genetically modified cell lines or GHSR1a variants, the average ligand-induced response over 10 seconds was calculated, then normalized by dividing the L-miAeq by the L-miAeq plus the Lysis-miAeq and normalized to the appropriate control/reference condition.

[1] = system: human hGHSR1a-vasopressin receptor 2 tail chimera; test: β-arr2^GFP translocation, compound screening (U2OS); details: secondary assay of HTS hits; for Beta-arrestin translocation ECmax (%): normalized to L585; for EC50: read-out: Beta-arrestin translocation EC50
[2] = molecular target: T1, hGHSR1a^WT in Gαq/11 KO HEK293/S cells (Homo sapiens, UniProt Q92847); test: iCa2+ in Gαq/11 KO HEK293/S cells; details: 10 μM ligand
T1 construct: expressed in transfected cells; SRF-RE reporter); HEK293/S Gαq/11 KO and parental WT (iCa2+)
Protocol: as §1

hGHSR1a^WT, sequence (Q92847 whole entry): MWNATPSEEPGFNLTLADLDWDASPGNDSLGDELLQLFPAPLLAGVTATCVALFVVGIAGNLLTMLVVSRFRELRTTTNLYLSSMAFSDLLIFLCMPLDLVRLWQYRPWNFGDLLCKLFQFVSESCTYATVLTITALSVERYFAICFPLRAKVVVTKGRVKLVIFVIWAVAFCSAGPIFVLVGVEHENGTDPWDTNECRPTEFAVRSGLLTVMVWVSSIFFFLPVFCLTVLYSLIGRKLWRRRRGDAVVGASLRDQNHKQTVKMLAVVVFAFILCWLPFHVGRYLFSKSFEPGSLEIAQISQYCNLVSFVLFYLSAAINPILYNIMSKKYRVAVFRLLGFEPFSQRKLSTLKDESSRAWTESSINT
T1 sequence (Q92847 whole entry): as above

| Compound | Calcium signaling ECmax (%) (hGHSR1a^WT) | EC50 (hGHSR1a^WT) [µM] | Beta-arrestin translocation ECmax (%) [1] [%] | EC50 [1] [µM] | inhibition of iCa2+ evoked by N8279, ghrelin or L585 (hGHSR1a^WT) | agonist-induced iCa2+ in Gαq/11 KO cells [2] | activity of re-synthesized molecule in words (hGHSR1a^WT; re-synthesized material) | potency and efficacy relative to L585 in words (hGHSR1a^WT; screening sample) |
| --- | --- | --- | --- | --- | --- | --- | --- | --- |
| COc1cccc(C2c3c(oc4ccccc4c3=O)C(=O)N2CCCN2CCOCC2)c1 (stereo not drawn) [MLS000115599] | 71 | 20.4 | – | – | – | – | – | – |
| COc1cc(C2c3c(oc4cc(C)c(C)cc4c3=O)C(=O)N2CCCN2CCOCC2)ccc1O (stereo not drawn) [NCGC00101915] | – | ~19200 | 368 | 13.6 | – | – | – | – |
| Cc1nc2ccc(Oc3ccc(F)cc3)cc2c(=O)n1C[C@H]1CCCN(C(C)C)C1 [YIL781, reference compound] | – | – | – | – | competitively inhibited | – | – | – |
| CCCOc1cccc(C2c3c(oc4ccc(F)cc4c3=O)C(=O)N2CCCN2CCOCC2)c1 (stereo not drawn) [NCGC00101919] | – | ~1520 | 99 | 1.74 | – | – | – | – |
| CCCCOCCCn1c(N)c(C(=O)OC(C)COC)c2nc3ccccc3nc21 (stereo not drawn) [MLS000036469] | 50 | 0.00306 | – | 147 | – | – | – | – |
| C[C@@H](O)CNC(C)(C)CC(=O)N[C@@H]1CCc2ccccc2N(Cc2ccc(-c3ccccc3-c3nn[nH]n3)cc2)C1=O [Example L626.585, reference compound] | 100 | 0.0146 | 100 | 0.024 | – | abolished | – | – |
| CCCCOc1ccc(C2c3c(oc4ccc(C)cc4c3=O)C(=O)N2CCCN(C)C)cc1OCC (stereo not drawn) [NCGC00101941] | – | ~26900 | 83 | 0.095 | – | – | – | – |
| Cc1ccc2oc3c(c(=O)c2c1)C(c1ccc(O)cc1)N(Cc1ccc2c(c1)OCO2)C3=O (stereo not drawn) [NCGC00101948] | – | ~11200 | – | – | – | – | – | – |
| CC(C)CCOc1cccc(C2c3c(oc4ccccc4c3=O)C(=O)N2CCCN2CCOCC2)c1 (stereo not drawn) [MLS000115603] | 48 | 0.00681 | – | ~4690 | – | – | – | – |
| C=CCOc1ccc(C2c3c(oc4ccc(C)cc4c3=O)C(=O)N2CCCN2CCOCC2)cc1 (stereo not drawn) [NCGC00101909] | – | ~3020 | 64 | 0.254 | – | – | – | – |
| CSc1ccc(C2c3c(oc4ccccc4c3=O)C(=O)N2CCCN2CCOCC2)cc1 (stereo not drawn) [NCGC00101907] | 40 | 3.35 | 39 | 0.558 | – | – | – | – |
| Cc1ccc2oc3c(c(=O)c2c1)C(c1ccc(O)cc1)N(CCCN(C)C)C3=O (stereo not drawn) [NCGC00101937] | 112 | 2.78 | 49 | 0.855 | – | – | – | – |
| CCOc1cccc(C2c3c(oc4ccc(F)cc4c3=O)C(=O)N2CCOC)c1 (stereo not drawn) [NCGC00101945] | 63 | 1.2 | 7 | 2 | – | – | – | – |
| COc1ccc(C2c3c(oc4ccc(C)cc4c3=O)C(=O)N2CCCN2CCOCC2)cc1OC (stereo not drawn) [NCGC00141954] | 105 | 0.714 | 196 | 5.33 | – | – | – | – |
| O=C1c2oc3ccc(F)cc3c(=O)c2C(c2cccc([N+](=O)[O-])c2)N1CCCN1CCOCC1 (stereo not drawn) [NCGC00119778] | – | ~62000 | – | – | – | – | – | – |
| Cc1cc(C)c2c(=O)c3c(oc2c1)C(=O)N(Cc1ccco1)C3c1ccc(F)cc1 (stereo not drawn) [NCGC00116418] | – | ~3010 | – | – | – | – | – | – |
| O=C1c2oc3ccccc3c(=O)c2C(c2ccccc2F)N1Cc1ccc2c(c1)OCO2 (stereo not drawn) [NCGC00101942] | 57 | – | 12 | 0.528 | – | – | – | – |
| CCOc1cc(C2c3c(oc4ccccc4c3=O)C(=O)N2Cc2ccc(OC)cc2)ccc1O (stereo not drawn) [NCGC00101920] | – | ~18500 | 9 | 0.0165 | – | – | – | – |
| COc1cccc(C2c3c(oc4ccccc4c3=O)C(=O)N2CCCN2CCOCC2)c1 (stereo not drawn) [MLS002585710] | 56 | 0.0176 | – | – | – | – | – | – |

| Compound | Calcium signaling ECmax (%) (hGHSR1a^WT) | EC50 (hGHSR1a^WT) [µM] | Beta-arrestin translocation ECmax (%) [1] [%] | EC50 [1] [µM] | inhibition of iCa2+ evoked by N8279, ghrelin or L585 (hGHSR1a^WT) | agonist-induced iCa2+ in Gαq/11 KO cells [2] | activity of re-synthesized molecule in words (hGHSR1a^WT; re-synthesized material) | potency and efficacy relative to L585 in words (hGHSR1a^WT; screening sample) |
| --- | --- | --- | --- | --- | --- | --- | --- | --- |
| CCCOc1ccc(C2c3c(oc4ccccc4c3=O)C(=O)N2c2ccc(C)cn2)cc1OCC (stereo not drawn) [NCGC00101673] | 115 | 32.4 | 49 | 2.4 | – | – | – | – |
| Cc1ccc2oc3c(c(=O)c2c1)C(c1cccc(Cl)c1)N(CCCN1CCOCC1)C3=O (stereo not drawn) [MLS000103531] | 8 | 0.00032 | 204 | 6.3 | – | – | – | – |
| Cc1ccc2oc3c(c(=O)c2c1)C(c1cccc(O)c1)N(CCCN1CCOCC1)C3=O (stereo not drawn) [NCGC00101913] | – | ~18000 | 153 | 1.55 | – | – | – | – |
| CCOc1ccc(C2c3c(oc4ccc(C)cc4c3=O)C(=O)N2CCCN(C)C)cc1 (stereo not drawn) [NCGC00141058] | 97 | 1.29 | 142 | 2.03 | – | – | – | – |
| CCOc1ccc(C2c3c(oc4ccc(C)cc4c3=O)C(=O)N2CCCN2CCOCC2)cc1 (stereo not drawn) [NCGC00141056] | 68 | 0.938 | 19 | 0.00219 | – | – | – | – |
| CCOc1ccc(C2c3c(oc4ccccc4c3=O)C(=O)N2CCCN2CCOCC2)cc1OCC (stereo not drawn) [MLS000115604] | 51 | 0.00804 | 38 | 0.00298 | – | – | – | – |
| CCCOc1ccc(C2c3c(oc4cc(C)c(C)cc4c3=O)C(=O)N2CCCN2CCOCC2)cc1 (stereo not drawn) [MLS000115606] | – | – | 24 | 0.0312 | – | – | – | – |
| CCCOc1ccc(C2c3c(oc4cc(C)c(C)cc4c3=O)C(=O)N2CCCN(C)C)cc1OCC (stereo not drawn) [MLS000115621] | 126 | 2.38 | 0 | – | – | – | – | – |
| CC(C)c1ccc(C2c3c(oc4ccc(Cl)cc4c3=O)C(=O)N2CCCN2CCOCC2)cc1 (stereo not drawn) [NCGC00119774] | 75 | 5.62 | 163 | 3.05 | – | – | – | – |
| COc1ccc(C2c3c(oc4ccc(F)cc4c3=O)C(=O)N2Cc2ccc3c(c2)OCO3)cc1 (stereo not drawn) [NCGC00101634] | 61 | 7.71 | 10 | 0.426 | – | – | – | – |
| COc1ccc(OC)c(C2c3c(oc4ccc(C)cc4c3=O)C(=O)N2CCCN(C)C)c1 (stereo not drawn) [NCGC00136184] | 129 | 13.1 | 24 | 2.33 | – | – | – | – |
| COc1cccc(C2c3c(oc4ccc(C)cc4c3=O)C(=O)N2CCCN2CCOCC2)c1OC (stereo not drawn) [NCGC00136166] | – | ~296 | 11 | 0.0716 | – | – | – | – |
| Cc1ccc2oc3c(c(=O)c2c1)C(c1ccccc1F)N(CCCN1CCOCC1)C3=O (stereo not drawn) [NCGC00101911] | 44 | 0.00226 | – | – | – | – | – | – |
| JMV2959 [reference compound] | – | – | – | – | competitively inhibited | – | – | – |
| Cc1ccc2oc3c(c(=O)c2c1)C(c1ccccc1F)N(CCCN(C)C)C3=O (stereo not drawn) [NCGC00101939] | 121 | 4.9 | 20 | 0.0116 | – | – | – | – |
| CCCOc1cccc(C2c3c(oc4cc(C)c(C)cc4c3=O)C(=O)N2CCCN2CCOCC2)c1 (stereo not drawn) [NCGC00101917] | 39 | 0.0043 | 20 | 0.00424 | – | – | – | – |
| Cc1ccc2oc3c(c(=O)c2c1)C(c1ccc([N+](=O)[O-])cc1)N(CCCN1CCOCC1)C3=O (stereo not drawn) [NCGC00119776] | 125 | 12 | 26 | 0.0499 | – | – | – | – |
| CCOc1ccc(C2c3c(oc4ccc(C)cc4c3=O)C(=O)N2CCCN(C)C)cc1OC (stereo not drawn) [NCGC00141956] | 105 | 0.332 | 107 | 2.31 | – | – | could not be confirmed | sub-μM potency and full efficacy |
